These results are taken from patent US20230123334A1, “AMINO LIPID COMPOUND, PREPARATION METHOD THEREFOR, AND APPLICATION THEREOF” (SHENZHEN SHENXIN BIOTECHNOLOGY CO., LTD., priority 2020, published 2023).

The test system of assay [1] is HEK293 cells. As to the kind of experiment: Preliminary screening as DNA vectors, GFP transfection of HEK293 cells. It counts as cell-based. Particulars: HEK293 cells; lipid/DOPE liposome with 75 ng plasmid DNA (psin-EGFP-IRES-Puro); number of cells expressing GFP divided by total number of nuclei (Hoechst). The procedure, abridged: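 Lipid + DOPE liposomes (NaOAc, pH 5.6) complexed w/ 75 ng psin-EGFP-IRES-Puro, 30 min RT; added to 3-5×10^4 HEK293/well, 37° C. Hoechst 0.2 μg/mL at 20-24 h, imaged after further 20-24 h. Efficiency = GFP+ cells / total nuclei.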

In assay [2] the test system is HEK293 cells. As to the kind of experiment: Preliminary screening as mRNA vectors, EGFP mRNA transfection of HEK293 cells. The class given is cell-based. Particulars: HEK293 cells, 96-well plates, EGFP mRNA 50 ng per well; percentage of GFP fluorescent cells relative to total number of cells (Hoechst). The method in brief: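 Each well of HEK293 cells received 50 ng of EGFP mRNA. Efficiency was expressed as percent GFP-expressing cells over Hoechst-defined total cell number.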

Consider `CCCCCCCCCCCCCCCNc1nc(NCCCCCCCCCCC)nc(NCCN(C)C)n1` [Compound N11N15D1], for which, in assay [1], the “Absolute DNA transfection efficiency in HEK293 cells” value (“Absolute DNA transfection efficiency” for short) is 1.3%. Moreover, in assay [2], the “Absolute mRNA transfection efficiency in HEK293 cells” value (“Absolute mRNA transfection efficiency” for short) was 0.6%.
For the molecule `CCCCCCCCCCCCCCCNc1nc(NCCCCCCCCCCC)nc(NCCN2CCOCC2)n1` [Compound N11N15D2], the “Absolute DNA transfection efficiency” value in assay [1] came out at 0.3%. Also, the “Absolute mRNA transfection efficiency” value in assay [2] turned out to be 0.7%.
The like results for `CCCCCCCCCCCCCCCNc1nc(NCCCCCCCCCCC)nc(NCCN2CCCC2)n1` [Compound N11N15D3] were, in that order, 0.3% and 2.7%.
The like results for `CCCCCCCCCCCCCCCNc1nc(NCCCCCCCCCCC)nc(NCCN2CCCCC2)n1` [Compound N11N15D4] were, in that order, 0.9% and 2.8%.
The like results for `CCCCCCCCCCCCCCCNc1nc(NCCCCCCCCCCC)nc(NCCN2CCN(C)CC2)n1` [Compound N11N15D5] were, in that order, 0.2% and 0.8%.
As for `CCCCCCCCCCCCCCCNc1nc(NCCCCCCCCCCC)nc(NCCCN(C)C)n1` [Compound N11N15D6], the “Absolute DNA transfection efficiency” value in assay [1] was 1.6%. Besides, the “Absolute mRNA transfection efficiency” value in assay [2] turned out to be 0.3%.
The like results for `CCCCCCCCCCCCCCCNc1nc(NCCCCCCCCCCC)nc(NCCN(CC)CC)n1` [Compound N11N15D7] were, in that order, 0.2% and 0.0%.
As to `CCCCCCCCCCCCCCCNc1nc(NCCCCCCCCCCC)nc(NCCCN2CCOCC2)n1` [Compound N11N15D8], the “Absolute DNA transfection efficiency” value in assay [1] was 1.1%. The “Absolute mRNA transfection efficiency” value in assay [2] was 0.5%.
The like results for `CCCCCCCCCCCCCCCNc1nc(NCCCCCCCCCCC)nc(NCCCN2CCN(C)CC2)n1` [Compound N11N15D9] were, in that order, 0.1% and 0.3%.
The like results for `CCCCCCCCCCCCCCCNc1nc(NCCCCCCCCCCC)nc(NCC2CCN(C)CC2)n1` [Compound N11N15D10] were, in that order, 0.4% and 1.6%.
On to `CCCCCCCCCCCCCCCCNc1nc(NCCCCCCCCCCC)nc(NCCN(C)C)n1` [Compound N11N16D1], for which, in assay [1], the “Absolute DNA transfection efficiency” value is given as 0.4%. Moreover, the “Absolute mRNA transfection efficiency” value in assay [2] amounted to 0.6%.
Turning to `CCCCCCCCCCCCCCCCNc1nc(NCCCCCCCCCCC)nc(NCCN2CCOCC2)n1` [Compound N11N16D2], in assay [1], the “Absolute DNA transfection efficiency” value was determined as 0.0%. In addition, the “Absolute mRNA transfection efficiency” value in assay [2] is 1.0%.
On to `CCCCCCCCCCCCCCCCNc1nc(NCCCCCCCCCCC)nc(NCCN2CCCC2)n1` [Compound N11N16D3], for which the “Absolute DNA transfection efficiency” value in assay [1] amounted to 1.2%. The “Absolute mRNA transfection efficiency” value in assay [2] stood at 3.6%.
Regarding `CCCCCCCCCCCCCCCCNc1nc(NCCCCCCCCCCC)nc(NCCN2CCCCC2)n1` [Compound N11N16D4], the “Absolute DNA transfection efficiency” value in assay [1] is on record as 0.1%. For the same molecule, the “Absolute mRNA transfection efficiency” value in assay [2] amounted to 0.0%.
For `CCCCCCCCCCCCCCCCNc1nc(NCCCCCCCCCCC)nc(NCCN2CCN(C)CC2)n1` [Compound N11N16D5], the “Absolute DNA transfection efficiency” value in assay [1] is 0.0%. In addition, the “Absolute mRNA transfection efficiency” value in assay [2] is recorded as 2.5%.
The like results for `CCCCCCCCCCCCCCCCNc1nc(NCCCCCCCCCCC)nc(NCCCN(C)C)n1` [Compound N11N16D6] were, in that order, 0.2% and 1.4%.
With `CCCCCCCCCCCCCCCCNc1nc(NCCCCCCCCCCC)nc(NCCN(CC)CC)n1` [Compound N11N16D7], the “Absolute DNA transfection efficiency” value in assay [1] is 0.0%. The “Absolute mRNA transfection efficiency” value in assay [2] was 0.7%.
For `CCCCCCCCCCCCCCCCNc1nc(NCCCCCCCCCCC)nc(NCCCN2CCOCC2)n1` [Compound N11N16D8], the “Absolute DNA transfection efficiency” value in assay [1] was 0.0%. In addition, the “Absolute mRNA transfection efficiency” value in assay [2] stood at 0.4%.
Consider `CCCCCCCCCCCCCCCCNc1nc(NCCCCCCCCCCC)nc(NCCCN2CCN(C)CC2)n1` [Compound N11N16D9], for which the “Absolute DNA transfection efficiency” value in assay [1] is reported as 0.0%. The “Absolute mRNA transfection efficiency” value in assay [2] is 0.9%.
The like results for `CCCCCCCCCCCCCCCCNc1nc(NCCCCCCCCCCC)nc(NCC2CCN(C)CC2)n1` [Compound N11N16D10] were, in that order, 0.6% and 1.1%.
As for `CCCCCCCCCCCCCCCCCCNc1nc(NCCCCCCCCCCC)nc(NCCN(C)C)n1` [Compound N11N18D1], in assay [1], the “Absolute DNA transfection efficiency” value was found to be 3.4%. Further, the “Absolute mRNA transfection efficiency” value in assay [2] was 7.2%.
For the molecule `CCCCCCCCCCCCCCCCCCNc1nc(NCCCCCCCCCCC)nc(NCCN2CCOCC2)n1` [Compound N11N18D2], the “Absolute DNA transfection efficiency” value in assay [1] is recorded as 0.3%. Moreover, in assay [2], the “Absolute mRNA transfection efficiency” value was 0.8%.
Consider `CCCCCCCCCCCCCCCCCCNc1nc(NCCCCCCCCCCC)nc(NCCN2CCCC2)n1` [Compound N11N18D3], for which, in assay [1], the “Absolute DNA transfection efficiency” value was found to be 0.6%. In addition, in assay [2], the “Absolute mRNA transfection efficiency” value turned out to be 2.8%.
The corresponding values for `CCCCCCCCCCCCCCCCCCNc1nc(NCCCCCCCCCCC)nc(NCCN2CCCCC2)n1` [Compound N11N18D4] are 1.9% and 2.3%.
The like results for `CCCCCCCCCCCCCCCCCCNc1nc(NCCCCCCCCCCC)nc(NCCN2CCN(C)CC2)n1` [Compound N11N18D5] were, in that order, 1.4% and 0.0%.
The corresponding values for `CCCCCCCCCCCCCCCCCCNc1nc(NCCCCCCCCCCC)nc(NCCCN(C)C)n1` [Compound N11N18D6] are 0.4% and 0.0%.
On to `CCCCCCCCCCCCCCCCCCNc1nc(NCCCCCCCCCCC)nc(NCCN(CC)CC)n1` [Compound N11N18D7], for which the “Absolute DNA transfection efficiency” value in assay [1] stood at 1.1%. For the same molecule, the “Absolute mRNA transfection efficiency” value in assay [2] came to 4.0%.
Turning to `CCCCCCCCCCCCCCCCCCNc1nc(NCCCCCCCCCCC)nc(NCCCN2CCOCC2)n1` [Compound N11N18D8], the “Absolute DNA transfection efficiency” value in assay [1] turned out to be 2.2%. Further, the “Absolute mRNA transfection efficiency” value in assay [2] is given as 1.2%.
On to `CCCCCCCCCCCCCCCCCCNc1nc(NCCCCCCCCCCC)nc(NCCCN2CCN(C)CC2)n1` [Compound N11N18D9], for which the “Absolute DNA transfection efficiency” value in assay [1] was found to be 0.0%. In addition, in assay [2], the “Absolute mRNA transfection efficiency” value is recorded as 1.7%.
The corresponding values for `CCCCCCCCCCCCCCCCCCNc1nc(NCCCCCCCCCCC)nc(NCC2CCN(C)CC2)n1` [Compound N11N18D10] are 0.2% and 1.6%.
The corresponding values for `CCCCCCCCCCCCNc1nc(NCCCCCCCCCCCC)nc(NCCN(C)C)n1` [Compound N12N12D1] are 0.1% and 0.2%.
For the molecule `CCCCCCCCCCCCNc1nc(NCCCCCCCCCCCC)nc(NCCN2CCOCC2)n1` [Compound N12N12D2], the “Absolute DNA transfection efficiency” value in assay [1] amounted to 0.2%. Also, the “Absolute mRNA transfection efficiency” value in assay [2] stood at 1.0%.
For the molecule `CCCCCCCCCCCCNc1nc(NCCCCCCCCCCCC)nc(NCCN2CCCC2)n1` [Compound N12N12D3], in assay [1], the “Absolute DNA transfection efficiency” value is on record as 1.9%. Also, in assay [2], the “Absolute mRNA transfection efficiency” value amounted to 3.8%.
The corresponding values for `CCCCCCCCCCCCNc1nc(NCCCCCCCCCCCC)nc(NCCN2CCCCC2)n1` [Compound N12N12D4] are 0.4% and 2.2%.
On to `CCCCCCCCCCCCNc1nc(NCCCCCCCCCCCC)nc(NCCN2CCN(C)CC2)n1` [Compound N12N12D5], for which the “Absolute DNA transfection efficiency” value in assay [1] worked out at 0.4%. Moreover, in assay [2], the “Absolute mRNA transfection efficiency” value came to 0.8%.
Regarding `CCCCCCCCCCCCNc1nc(NCCCCCCCCCCCC)nc(NCCCN(C)C)n1` [Compound N12N12D6], the “Absolute DNA transfection efficiency” value in assay [1] is 0.3%. The “Absolute mRNA transfection efficiency” value in assay [2] is on record as 0.8%.
For the molecule `CCCCCCCCCCCCNc1nc(NCCCCCCCCCCCC)nc(NCCN(CC)CC)n1` [Compound N12N12D7], in assay [1], the “Absolute DNA transfection efficiency” value was found to be 0.1%. In addition, in assay [2], the “Absolute mRNA transfection efficiency” value was 0.6%.
On to `CCCCCCCCCCCCNc1nc(NCCCCCCCCCCCC)nc(NCCCN2CCOCC2)n1` [Compound N12N12D8], for which the “Absolute DNA transfection efficiency” value in assay [1] was 0.0%. For the same molecule, the “Absolute mRNA transfection efficiency” value in assay [2] was determined as 0.3%.
As for `CCCCCCCCCCCCNc1nc(NCCCCCCCCCCCC)nc(NCCCN2CCN(C)CC2)n1` [Compound N12N12D9], the “Absolute DNA transfection efficiency” value in assay [1] is recorded as 0.0%. Besides, the “Absolute mRNA transfection efficiency” value in assay [2] is 1.5%.
With `CCCCCCCCCCCCNc1nc(NCCCCCCCCCCCC)nc(NCC2CCN(C)CC2)n1` [Compound N12N12D10], the “Absolute DNA transfection efficiency” value in assay [1] worked out at 0.5%. Also, the “Absolute mRNA transfection efficiency” value in assay [2] came to 0.6%.
Regarding `CCCCCCCCCCCCCNc1nc(NCCCCCCCCCCCC)nc(NCCN(C)C)n1` [Compound N12N13D1], in assay [1], the “Absolute DNA transfection efficiency” value is recorded as 1.2%. In addition, in assay [2], the “Absolute mRNA transfection efficiency” value is 1.6%.
